Key:
SNK-6 (IL-2 2.5 ng/mL) [1] = assay: drug sensitivity score (DSS) (DSS units); higher = more sensitive; extreme values may be limits of the assay; conditions: 72 h
NK-92 (IL-2 2.5 ng/mL) [2] = assay: as above; conditions: 72 h
[3] = test system: normal primary NK cells, pool 3 (3 donors) (IL-2 2.5 ng/mL); assay: as above; conditions: 72 h
[4] = test system: normal primary NK cells, pool 1 (3 donors) (IL-2 2.5 ng/mL); assay: as above; conditions: 72 h
NK-YS (IL-2 2.5 ng/mL) [5] = assay: as above; conditions: 72 h
IMC-1 (IL-2 20 ng/mL) [6] = assay: as above; conditions: 72 h
YT (IL-2 2.5 ng/mL) [7] = assay: as above; conditions: 72 h
NKL (IL-2 2.5 ng/mL) [8] = assay: as above; conditions: 72 h
DERL-7 (IL-2 2.5 ng/mL) [9] = assay: as above; conditions: 72 h
[10] = test system: normal primary NK cells, pool 1 (3 donors), resting (IL-2 0 ng/mL); assay: as above; conditions: 72 h
KAI3 (IL-2 2.5 ng/mL) [11] = assay: as above; conditions: 72 h
[12] = test system: normal primary NK cells, pool 2 (3 donors) (IL-2 2.5 ng/mL); assay: as above; conditions: 72 h
KHYG-1 (IL-2 2.5 ng/mL) [13] = assay: as above; conditions: 72 h
[14] = test system: normal NK cells expanded with K562-aAPC; assay: as above; conditions: 72 h; IL-2 2.5 ng/mL
Procedure: (§1)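 Drug sensitivity and resistance testing on K562-aAPC-expanded normal NK cells: 5 concentrations (10-fold steps over a 10,000-fold range), 72 h at 37 °C, viability by CellTiter-Glo normalised to DMSO and benzethonium chloride controls; DSS from the fitted curve.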

SNK-6 (IL-2 2.5 ng/mL) [15] = assay: percent inhibition of viability; higher = more inhibition; conditions: 72 h
NK-92 (IL-2 2.5 ng/mL) [16] = assay: as above; conditions: 72 h
[17] = test system: normal primary NK cells, pool 3 (3 donors) (IL-2 2.5 ng/mL); assay: as above; conditions: 72 h
[18] = test system: normal primary NK cells, pool 1 (3 donors) (IL-2 2.5 ng/mL); assay: as above; conditions: 72 h
NK-YS (IL-2 2.5 ng/mL) [19] = assay: as above; conditions: 72 h
IMC-1 (IL-2 20 ng/mL) [20] = assay: as above; conditions: 72 h
YT (IL-2 2.5 ng/mL) [21] = assay: as above; conditions: 72 h
NKL (IL-2 2.5 ng/mL) [22] = assay: as above; conditions: 72 h
DERL-7 (IL-2 2.5 ng/mL) [23] = assay: as above; conditions: 72 h
[24] = test system: normal primary NK cells, pool 1 (3 donors), resting (IL-2 0 ng/mL); assay: as above; conditions: 72 h
KAI3 (IL-2 2.5 ng/mL) [25] = assay: as above; conditions: 72 h
[26] = test system: normal primary NK cells, pool 2 (3 donors) (IL-2 2.5 ng/mL); assay: as above; conditions: 72 h
KHYG-1 (IL-2 2.5 ng/mL) [27] = assay: as above; conditions: 72 h
[28] = test system: normal NK cells expanded with K562-aAPC; assay: as above; conditions: 72 h, IL-2 2.5 ng/mL
Procedure: as §1

C#Cc1cccc(Nc2ncnc3cc(OCCOC)c(OCCOC)cc23)c1 [Erlotinib] (max concentration tested 10000 nM)
Conditions | drug sensitivity score
DERL-7 (IL-2 2.5 ng/mL) [9] | 2.71
IMC-1 (IL-2 20 ng/mL) [6] | 1.94
KAI3 (IL-2 2.5 ng/mL) [11] | 6.03
KHYG-1 (IL-2 2.5 ng/mL) [13] | 4.03
NK-92 (IL-2 2.5 ng/mL) [2] | 7.75
NK-YS (IL-2 2.5 ng/mL) [5] | 1.63
NKL (IL-2 2.5 ng/mL) [8] | 3.76
SNK-6 (IL-2 2.5 ng/mL) [1] | 5.2
YT (IL-2 2.5 ng/mL) [7] | 4.27
[3] | 0.89
[4] | 0.64
[10] | 2.81
[12] | 2.92
[14] | 4.14

percent inhibition of viability [%]
Conditions | 1 nM | 10 nM | 100 nM | 1000 nM | 10000 nM
DERL-7 (IL-2 2.5 ng/mL) [23] | 0.1 | -2.35 | -1.33 | 1.39 | 48.4
IMC-1 (IL-2 20 ng/mL) [20] | 1.33 | 9.48 | 7.46 | 12.3 | 22.8
KAI3 (IL-2 2.5 ng/mL) [25] | 1.13 | 8.32 | -5.25 | 20 | 58.5
KHYG-1 (IL-2 2.5 ng/mL) [27] | 3.49 | 6.34 | 8.19 | 9.39 | 47.6
NK-92 (IL-2 2.5 ng/mL) [16] | 9.74 | 4.56 | 24.3 | 25.9 | 43.1
NK-YS (IL-2 2.5 ng/mL) [19] | 1.58 | 1.15 | 0.89 | 5.14 | 24.1
NKL (IL-2 2.5 ng/mL) [22] | 5.31 | 4.23 | 11.4 | 14.5 | 38.5
SNK-6 (IL-2 2.5 ng/mL) [15] | 7.98 | 8.62 | 18.3 | 17.6 | 32.2
YT (IL-2 2.5 ng/mL) [21] | 8.58 | 6.57 | 10.3 | 17.4 | 38.6
[17] | -5.26 | -4.35 | 6.24 | -3.65 | 27.2
[18] | 0.75 | -3.53 | 2.15 | -7.62 | 24.8
[24] | -2.01 | -10.5 | -8.04 | -1.92 | 55.7
[26] | -6.62 | -1.77 | 13.4 | 4.86 | 41.7
[28] | 0.68 | 3.68 | 2.85 | 12.2 | 44.6

Cc1nc(C(=O)NCC(=O)O)c(O)c2ccc(Oc3ccccc3)cc12 [FG-4592] (max concentration tested 10000 nM)
Conditions | drug sensitivity score
DERL-7 (IL-2 2.5 ng/mL) [9] | 0
IMC-1 (IL-2 20 ng/mL) [6] | 0.7
KAI3 (IL-2 2.5 ng/mL) [11] | 0.42
KHYG-1 (IL-2 2.5 ng/mL) [13] | 1
NK-92 (IL-2 2.5 ng/mL) [2] | 1.18
NK-YS (IL-2 2.5 ng/mL) [5] | 1.72
NKL (IL-2 2.5 ng/mL) [8] | 0.76
SNK-6 (IL-2 2.5 ng/mL) [1] | 1.59
YT (IL-2 2.5 ng/mL) [7] | 0
[3] | 0
[4] | 0
[10] | 0
[12] | 0
[14] | 0.37

percent inhibition of viability [%]
Conditions | 1 nM | 10 nM | 100 nM | 1000 nM | 10000 nM
DERL-7 (IL-2 2.5 ng/mL) [23] | -0.63 | 3.45 | 4.49 | 0.12 | 6.99
IMC-1 (IL-2 20 ng/mL) [20] | -3.51 | -1.09 | 1.25 | -1.57 | 22.9
KAI3 (IL-2 2.5 ng/mL) [25] | 1.56 | -2.99 | 1.6 | -0.39 | 17.9
KHYG-1 (IL-2 2.5 ng/mL) [27] | 0.18 | -1.43 | 2.3 | 3.63 | 19.2
NK-92 (IL-2 2.5 ng/mL) [16] | -0.86 | -2.06 | 10.9 | 12.5 | 8.29
NK-YS (IL-2 2.5 ng/mL) [19] | -2.71 | -1.91 | 3.2 | 3.83 | 27.3
NKL (IL-2 2.5 ng/mL) [22] | -14 | -13 | -11.3 | -0.19 | 22.6
SNK-6 (IL-2 2.5 ng/mL) [15] | 3.91 | -11.4 | 5.11 | 2.73 | 28
YT (IL-2 2.5 ng/mL) [21] | 1.14 | -2.12 | -1.6 | -8.84 | 8.38
[17] | -2.12 | -3.88 | -1.26 | 5.12 | 5.24
[18] | 0.46 | 1.21 | -8.95 | -4.43 | -4.71
[24] | 5.05 | -14.3 | 2.92 | -12.2 | -4.7
[26] | -11.8 | -5.39 | -6.37 | 1.43 | 10.4
[28] | -0.43 | -0.13 | -0.05 | 6.19 | 12.6
